{"source": "patent US20230146395A1", "about": "“Substituted Pyrimidines and Uses Thereof” (Verge Analytics, Inc., priority 2020, published 2023)", "biological_target": "T1, Full length human recombinant PIKFYVE (Homo sapiens, UniProt Q9Y2I7)", "T1 construct": "Full length human recombinant PIKFYVE; purchased Carna Biosciences (Kobe, Japan); host or cells: baculovirus expression system", "T1 sequence (Q9Y2I7 whole entry)": "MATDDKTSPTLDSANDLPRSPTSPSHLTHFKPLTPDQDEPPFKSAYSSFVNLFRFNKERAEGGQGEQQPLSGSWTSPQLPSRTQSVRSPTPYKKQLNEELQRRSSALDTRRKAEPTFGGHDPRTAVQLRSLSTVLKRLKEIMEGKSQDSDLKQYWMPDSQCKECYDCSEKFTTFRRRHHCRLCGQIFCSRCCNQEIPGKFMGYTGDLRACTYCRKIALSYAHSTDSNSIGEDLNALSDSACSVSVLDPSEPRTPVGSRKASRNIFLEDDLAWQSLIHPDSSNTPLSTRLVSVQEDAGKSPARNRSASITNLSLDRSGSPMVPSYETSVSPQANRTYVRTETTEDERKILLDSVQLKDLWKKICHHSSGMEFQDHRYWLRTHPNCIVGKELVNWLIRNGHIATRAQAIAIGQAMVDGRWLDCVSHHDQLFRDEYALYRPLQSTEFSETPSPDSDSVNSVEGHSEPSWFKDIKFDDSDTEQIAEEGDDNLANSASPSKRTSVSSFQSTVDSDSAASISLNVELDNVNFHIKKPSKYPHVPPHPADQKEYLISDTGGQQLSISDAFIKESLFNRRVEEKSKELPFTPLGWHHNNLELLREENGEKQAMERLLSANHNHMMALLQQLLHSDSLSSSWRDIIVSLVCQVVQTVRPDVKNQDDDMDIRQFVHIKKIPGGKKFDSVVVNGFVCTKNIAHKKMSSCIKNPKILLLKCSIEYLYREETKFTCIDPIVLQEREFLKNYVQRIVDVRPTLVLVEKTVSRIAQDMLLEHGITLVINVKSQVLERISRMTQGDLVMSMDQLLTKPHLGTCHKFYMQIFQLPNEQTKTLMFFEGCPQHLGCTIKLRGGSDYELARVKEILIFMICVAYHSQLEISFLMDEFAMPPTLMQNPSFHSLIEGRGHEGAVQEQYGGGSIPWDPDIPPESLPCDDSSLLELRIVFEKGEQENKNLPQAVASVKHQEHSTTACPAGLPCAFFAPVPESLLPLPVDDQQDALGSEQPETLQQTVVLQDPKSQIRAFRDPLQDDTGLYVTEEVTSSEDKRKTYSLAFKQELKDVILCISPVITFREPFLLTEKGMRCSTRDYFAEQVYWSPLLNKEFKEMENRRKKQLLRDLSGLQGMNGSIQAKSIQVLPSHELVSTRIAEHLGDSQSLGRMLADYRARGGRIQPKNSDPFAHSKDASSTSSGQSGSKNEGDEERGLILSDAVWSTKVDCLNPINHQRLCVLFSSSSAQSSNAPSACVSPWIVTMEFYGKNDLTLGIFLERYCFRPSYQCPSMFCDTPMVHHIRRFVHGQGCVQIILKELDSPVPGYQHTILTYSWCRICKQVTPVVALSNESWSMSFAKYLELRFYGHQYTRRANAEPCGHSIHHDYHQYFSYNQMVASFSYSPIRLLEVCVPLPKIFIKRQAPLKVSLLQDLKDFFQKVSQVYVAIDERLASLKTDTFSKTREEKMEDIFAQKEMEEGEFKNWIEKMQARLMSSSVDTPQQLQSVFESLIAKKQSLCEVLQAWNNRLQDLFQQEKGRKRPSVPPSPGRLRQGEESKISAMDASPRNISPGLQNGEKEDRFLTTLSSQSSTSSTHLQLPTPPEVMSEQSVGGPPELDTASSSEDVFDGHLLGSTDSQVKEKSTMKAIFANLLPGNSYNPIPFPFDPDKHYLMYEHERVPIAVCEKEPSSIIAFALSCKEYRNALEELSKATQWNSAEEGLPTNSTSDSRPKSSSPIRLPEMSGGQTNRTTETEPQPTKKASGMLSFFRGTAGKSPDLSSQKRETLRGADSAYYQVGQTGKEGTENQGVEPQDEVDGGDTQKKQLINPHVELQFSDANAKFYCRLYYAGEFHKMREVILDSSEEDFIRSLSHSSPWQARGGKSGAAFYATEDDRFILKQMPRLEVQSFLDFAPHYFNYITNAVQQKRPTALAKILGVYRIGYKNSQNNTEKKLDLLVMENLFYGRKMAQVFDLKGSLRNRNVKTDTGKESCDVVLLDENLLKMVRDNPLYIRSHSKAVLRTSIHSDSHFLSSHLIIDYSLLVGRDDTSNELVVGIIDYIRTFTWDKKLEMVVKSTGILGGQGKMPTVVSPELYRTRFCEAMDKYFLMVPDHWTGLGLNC", "test": "Inhibition of PIKfyve (microfluidic electrophoresis kinase assay, PI3P/PS substrate)", "format": "biochemical", "details": "12 concentrations", "outline": "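GST-tagged full-length human PIKFYVE (baculovirus; 2 nM) with fluorescent PI3P/PS (1 μM PI3P) and […] in pH 7.5 HEPES with Mg2+/Mn2+, 1% DMSO, 3 h at room temperature. PI(3,5)P product/substrate ratio read by microfluidic electrophoresis; 12-point % inhibition versus no-enzyme and DMSO controls.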"}
{"smiles": "COCCNC(=O)c1cc2nc(Nc3cc(-c4ccccc4)[nH]n3)nc(N3CCOCC3)c2o1", "note": "[Compound 140, N-(2-methoxyethyl)-4-morpholino-2-((5-phenyl-1H-pyrazol-3-yl)amino)furo[3,2-d]pyrimidine-6-carboxamide]", "values": [{"measurement": "IC50", "value": 43, "unit": "nM"}]}
{"smiles": "O=C(O)c1cc2nc(Nc3cc(-c4ccccc4)[nH]n3)nc(N3CCOCC3)c2o1", "note": "[Compound 141, 4-morpholino-2-((5-phenyl-1H-pyrazol-3-yl)amino)furo[3,2-d]pyrimidine-6-carboxylic acid]", "values": [{"measurement": "IC50", "value": 252, "unit": "nM"}]}
{"smiles": "c1ccc(-c2cc(Nc3nc(N4CCOCC4)c4occc4n3)n[nH]2)cc1", "note": "[Compound 142, 4-morpholino-N-(5-phenyl-1H-pyrazol-3-yl)furo[3,2-d]pyrimidin-2-amine]", "values": [{"measurement": "IC50", "value": 145, "unit": "nM"}]}
{"smiles": "Cc1cccc(-c2cnn(-c3nc(N4CCOCC4)c4oc(C(=O)NC5CC5)c(C(F)(F)F)c4n3)c2)c1", "note": "[Compound 147, N-cyclopropyl-4-morpholino-2-(4-(m-tolyl)-1H-pyrazol-1-yl)-7-(trifluoromethyl)furo[3,2-d]pyrimidine-6-carboxamide]", "values": [{"measurement": "IC50", "value": 1030, "unit": "nM"}]}
{"smiles": "Cc1cccc(-c2ccn(-c3nc(N4CCOCC4=O)c4oc(-c5ccccn5)cc4n3)n2)c1", "note": "[Compound 148]", "values": [{"measurement": "IC50", "value": 3860, "unit": "nM"}]}
{"smiles": "CCNC(=O)c1cc2nc(-n3cc(-c4cccc(C)c4)cn3)nc(N3CCOCC3=O)c2o1", "note": "[Compound 149, N-ethyl-2-[4-(m-tolyl)pyrazol-1-yl]-4-(3-oxomorpholin-4-yl)furo[3,2-d]pyrimidine-6-carboxamide]", "values": [{"measurement": "IC50", "value": "> 20000", "unit": "nM"}]}
{"smiles": "Cc1cccc(-c2cnn(-c3nc(N4CCOCC4)c4oc(C(=O)NCCS(C)(=O)=O)cc4n3)c2)c1", "note": "[Compound 150, N-(2-(methylsulfonyl)ethyl)-4-morpholino-2-(4-(m-tolyl)-1H-pyrazol-1-yl)furo[3,2-d]pyrimidine-6-carboxamide]", "values": [{"measurement": "IC50", "value": 103, "unit": "nM"}]}
{"smiles": "CN1CCC(NC(=O)c2cc3nc(-n4ccc(-c5ccccc5)n4)nc(N4CCOCC4)c3o2)CC1", "note": "[Compound 151, N-(1-methyl-4-piperidyl)-4-morpholino-2-(3-phenylpyrazol-1-yl)furo[3,2-d]pyrimidine-6-carboxamide]", "values": [{"measurement": "IC50", "value": 446, "unit": "nM"}]}
{"smiles": "CCNC(=O)c1cc2nc(-n3ccc(-c4ccccc4)n3)nc(N3CCOCC3)c2o1", "note": "[Compound 152, N-ethyl-4-morpholino-2-(3-phenyl-1H-pyrazol-1-yl)furo[3,2-d]pyrimidine-6-carboxamide]", "values": [{"measurement": "IC50", "value": 306, "unit": "nM"}]}
{"smiles": "O=C(NC1CC1)c1cc2nc(-n3ccc(-c4ccccc4)n3)nc(N3CCOCC3)c2o1", "note": "[Compound 153, N-cyclopropyl-4-morpholino-2-(3-phenylpyrazol-1-yl)furo[3,2-d]pyrimidine-6-carboxamide]", "values": [{"measurement": "IC50", "value": 24, "unit": "nM"}]}
{"smiles": "CCNC(=O)c1cc2nc(-n3cc(-c4ccccc4)cn3)nc(N3CCOCC3)c2o1", "note": "[Compound 154, N-ethyl-4-morpholino-2-(4-phenylpyrazol-1-yl)furo[3,2-d]pyrimidine-6-carboxamide]", "values": [{"measurement": "IC50", "value": 77.3, "unit": "nM"}]}
{"smiles": "c1ccc(-c2ccn(-c3nc(N4CCOCC4)c4oc(-c5ccccn5)cc4n3)n2)cc1", "note": "[Compound 155, 4-morpholino-2-(3-phenylpyrazol-1-yl)-6-(2-pyridyl)furo[3,2-d]pyrimidine]", "values": [{"measurement": "IC50", "value": 70.6, "unit": "nM"}]}
{"smiles": "c1ccc(-c2ccn(-c3nc(N4CCOCC4)c4oc(-c5cccnc5)cc4n3)n2)cc1", "note": "[Compound 156, 4-morpholino-2-(3-phenyl-1H-pyrazol-1-yl)-6-(pyridin-3-yl)furo[3,2-d]pyrimidine]", "values": [{"measurement": "IC50", "value": 152, "unit": "nM"}]}
{"smiles": "CN1CCC(NC(=O)c2cc3nc(-n4cc(-c5ccccc5)cn4)nc(N4CCOCC4)c3o2)CC1", "note": "[Compound 157, N-(1-methylpiperidin-4-yl)-4-morpholino-2-(4-phenyl-1H-pyrazol-1-yl)furo[3,2-d]pyrimidine-6-carboxamide]", "values": [{"measurement": "IC50", "value": 88.8, "unit": "nM"}]}
{"smiles": "c1ccc(-c2ccn(-c3nc(N4CCOCC4)c4oc(-c5ccncc5)cc4n3)n2)cc1", "note": "[Compound 158, 4-morpholino-2-(3-phenylpyrazol-1-yl)-6-(4-pyridyl)furo[3,2-d]pyrimidine]", "values": [{"measurement": "IC50", "value": 160, "unit": "nM"}]}
{"smiles": "O=C(NCC1COC1)c1cc2nc(-n3ccc(-c4ccccc4)n3)nc(N3CCOCC3)c2o1", "note": "[Compound 159, 4-morpholino-N-(oxetan-3-ylmethyl)-2-(3-phenylpyrazol-1-yl)furo[3,2-d]pyrimidine-6-carboxamide]", "values": [{"measurement": "IC50", "value": 943, "unit": "nM"}]}
{"smiles": "c1ccc(-c2cnn(-c3nc(N4CCOCC4)c4oc(-c5cccnc5)cc4n3)c2)cc1", "note": "[Compound 160, 4-morpholino-2-(4-phenylpyrazol-1-yl)-6-(3-pyridyl)furo[3,2-d]pyrimidine]", "values": [{"measurement": "IC50", "value": 61.7, "unit": "nM"}]}
{"smiles": "c1ccc(-c2cnn(-c3nc(N4CCOCC4)c4oc(-c5ccccn5)cc4n3)c2)cc1", "note": "[Compound 161, 4-morpholino-2-(4-phenylpyrazol-1-yl)-6-(2-pyridyl)furo[3,2-d]pyrimidine]", "values": [{"measurement": "IC50", "value": 40.4, "unit": "nM"}]}
{"smiles": "Cc1cc(-c2cc3nc(-n4ccc(-c5ccccc5)n4)nc(N4CCOCC4)c3o2)[nH]n1", "note": "[Compound 162, 6-(3-methyl-1H-pyrazol-5-yl)-4-morpholino-2-(3-phenylpyrazol-1-yl)furo[3,2-d]pyrimidine]", "values": [{"measurement": "IC50", "value": 17.8, "unit": "nM"}]}
{"smiles": "Cc1cc(-c2cc3nc(-n4cc(-c5ccccc5)cn4)nc(N4CCOCC4)c3o2)[nH]n1", "note": "[Compound 163, 6-(3-methyl-1H-pyrazol-5-yl)-4-morpholino-2-(4-phenylpyrazol-1-yl)furo[3,2-d]pyrimidine]", "values": [{"measurement": "IC50", "value": 23.5, "unit": "nM"}]}
{"smiles": "O=C(NCC1COC1)c1cc2nc(-n3cc(-c4ccccc4)cn3)nc(N3CCOCC3)c2o1", "note": "[Compound 164, 4-morpholino-N-(oxetan-3-ylmethyl)-2-(4-phenyipyrazol-1-yl)furo[3,2-d]pyrimidine-6-carboxamide]", "values": [{"measurement": "IC50", "value": 162, "unit": "nM"}]}
{"smiles": "O=C(NC1CC1)c1cc2nc(-n3cc(-c4ccccc4)cn3)nc(N3CCOCC3)c2o1", "note": "[Compound 165, N-cyclopropyl-4-morpholino-2-(4-phenylpyrazol-1-yl)furo[3,2-d]pyrimidine-6-carboxamide]", "values": [{"measurement": "IC50", "value": 68.4, "unit": "nM"}]}
{"smiles": "O=C(NCC1CC1)c1cc2nc(-n3ccc(-c4ccccc4)n3)nc(N3CCOCC3)c2o1", "note": "[Compound 166, N-(cyclopropylmethyl)-4-morpholino-2-(3-phenylpyrazol-1-yl)furo[3,2-d]pyrimidine-6-carboxamide]", "values": [{"measurement": "IC50", "value": 220, "unit": "nM"}]}
{"smiles": "CN(C)CCCCNC(=O)c1cc2nc(-n3cc(-c4ccccc4)cn3)nc(N3CCOCC3)c2o1", "note": "[Compound 167]", "values": [{"measurement": "IC50", "value": 122, "unit": "nM"}]}
{"smiles": "CN(C)CCCNC(=O)c1cc2nc(-n3cc(-c4ccccc4)cn3)nc(N3CCOCC3)c2o1", "note": "[Compound 168, N-(3-(dimethylamino)propyl)-4-morpholino-2-(4-phenyl-1H-pyrazol-1-yl)furo[3,2-d]pyrimidine-6-carboxamide]", "values": [{"measurement": "IC50", "value": 62.1, "unit": "nM"}]}
{"smiles": "CN1CCCC(NC(=O)c2cc3nc(-n4cc(-c5ccccc5)cn4)nc(N4CCOCC4)c3o2)C1", "note": "(stereo not shown) [Compound 169, N-(1-methyl-3-piperidyl)-4-morpholino-2-(4-phenylpyrazol-1-yl)furo[3,2-d]pyrimidine-6-carboxamide]", "values": [{"measurement": "IC50", "value": 67.3, "unit": "nM"}]}
{"smiles": "CN1CCC(NC(=O)c2cc3nc(-n4cc(-c5ccccc5)cn4)nc(N4CCOCC4)c3o2)C1", "note": "(stereo not shown) [Compound 170, N-(1-methylpyrrolidin-3-yl)-4-morpholino-2-(4-phenylpyrazol-1-yl)furo[3,2-d]pyrimidine-6-carboxamide]", "values": [{"measurement": "IC50", "value": 45.5, "unit": "nM"}]}
{"smiles": "O=C(NC1CCOCC1)c1cc2nc(-n3cc(-c4ccccc4)cn3)nc(N3CCOCC3)c2o1", "note": "[Compound 171, 4-morpholino-2-(4-phenylpyrazol-1-yl)-N-tetrahydropyran-4-yl-furo[3,2-d]pyrimidine-6-carboxamide]", "values": [{"measurement": "IC50", "value": 39.2, "unit": "nM"}]}
{"smiles": "O=C(NC1CCOC1)c1cc2nc(-n3cc(-c4ccccc4)cn3)nc(N3CCOCC3)c2o1", "note": "(stereo not shown) [Compound 172, 4-morpholino-2-(4-phenylpyrazol-1-yl)-N-tetrahydrofuran-3-yl-furo[3,2-d]pyrimidine-6-carboxamide]", "values": [{"measurement": "IC50", "value": 37.8, "unit": "nM"}]}
{"smiles": "Cc1cccc(-c2ccn(-c3nc(N4CCOCC4)c4oc(-c5cc(C)n[nH]5)cc4n3)n2)c1", "note": "[Compound 173, 6-(3-methyl-1H-pyrazol-5-yl)-4-morpholino-2-[3-(m-tolyl)pyrazol-1-yl]furo[3,2-d]pyrimidine]", "values": [{"measurement": "IC50", "value": 0.6, "unit": "nM"}]}
{"smiles": "O=C(NC1COC1)c1cc2nc(-n3cc(-c4ccccc4)cn3)nc(N3CCOCC3)c2o1", "note": "[Compound 174, 4-morpholino-N-(oxetan-3-yl)-2-(4-phenylpyrazol-1-yl)furo[3,2-d]pyrimidine-6-carboxamide]", "values": [{"measurement": "IC50", "value": 531, "unit": "nM"}]}
{"smiles": "O=C(NC1COC1)c1cc2nc(-n3ccc(-c4ccccc4)n3)nc(N3CCOCC3)c2o1", "note": "[Compound 175, 4-morpholino-N-(oxetan-3-yl)-2-(3-phenylpyrazol-1-yl)furo[3,2-d]pyrimidine-6-carboxamide]", "values": [{"measurement": "IC50", "value": 4010, "unit": "nM"}]}
{"smiles": "CN1CCCC(NC(=O)c2cc3nc(-n4cc(-c5ccccc5)cn4)nc(N4CCOCC4)c3o2)CC1", "note": "(stereo not shown) [Compound 176, N-(1-methylazepan-4-yl)-4-morpholino-2-(4-phenylpyrazol-1-yl)furo[3,2-d]pyrimidine-6-carboxamide]", "values": [{"measurement": "IC50", "value": 47.3, "unit": "nM"}]}
{"smiles": "Cc1cc(-c2cc3nc(-n4ccc(-c5ccccc5)n4)nc(N4CCOCC4)c3o2)nn1CCN(C)C", "note": "[Compound 177, N,N-dimethyl-2-[5-methyl-3-[4-morpholino-2-(3-phenylpyrazol-1-yl)furo[3,2-d]pyrimidin-6-yl]pyrazol-1-yl]ethanamine]", "values": [{"measurement": "IC50", "value": 41.3, "unit": "nM"}]}
{"smiles": "Cc1cccc(-c2ccn(-c3nc(N4CCOCC4)c4oc(-c5cc(C)n(CCN(C)C)n5)cc4n3)n2)c1", "note": "[Compound 178, N,N-dimethyl-2-[5-methyl-3-[4-morpholino-2-[3-(m-tolyl)pyrazol-1-yl]furo[3,2-d]pyrimidin-6-yl]pyrazol-1-yl]ethanamine]", "values": [{"measurement": "IC50", "value": 0.9, "unit": "nM"}]}
{"smiles": "Cc1c(-c2ccccn2)oc2c(N3CCOCC3)nc(-n3ccc(-c4ccccc4)n3)nc12", "note": "[Compound 179, 7-methyl-4-morpholino-2-(3-phenyl-1H-pyrazol-1-yl)-6-(pyridin-2-yl)furo[3,2-d]pyrimidine]", "values": [{"measurement": "IC50", "value": "≥ 10000", "unit": "nM"}]}
{"smiles": "Cc1c(-c2cccnc2)oc2c(N3CCOCC3)nc(-n3ccc(-c4ccccc4)n3)nc12", "note": "[Compound 180, 7-methyl-4-morpholino-2-(3-phenylpyrazol-1-yl)-6-(3-pyridyl)furo[3,2-d]pyrimidine]", "values": [{"measurement": "IC50", "value": 55.6, "unit": "nM"}]}
